{"source": "EPA's ToxValDB 9.5 (doi:10.2903/j.efsa.2007.108r)", "key": {"[1]": {"test_system": "Oncorhynchus mykiss"}, "[2]": {"test_system": "Tagia sp.", "details": "acute; duration: 14 days; mortality"}, "[3]": {"test_system": "Rattus norvegicus"}, "[4]": {"test_system": "Anas platyrhynchos", "details": "short-term; oral; feed; mortality"}, "[5]": {"test_system": "Apis mellifera", "details": "acute; duration: 48 hours; oral; unspecified; mortality"}, "[6]": {"test_system": "Daphnia magna", "details": "chronic/long-term; duration: 21 days; reproduction"}, "[7]": {"test_system": "Colinus virginianus"}}, "note": "Values joined by “and” are separate entries in the source; they are usually repeats but may differ in a detail not shown here. Equal values may be shown once."}
{"smiles": "Nc1cnn(-c2ccccc2)c(=O)c1Cl", "note": "[Chloridazon]", "values": [{"measurement": "LC50", "setting": "[1]; acute, duration: 96 hours, mortality", "value": 41.3, "unit": "µg/mL"}, {"measurement": "NOEC", "setting": "[1]; chronic/long-term, duration: 28 days, growth", "value": 3.16, "unit": "mg/L"}, {"measurement": "LC50", "setting": "[2]", "value": "> 1000", "unit": "mg/kg"}, {"measurement": "LD50", "setting": "[3]; acute, oral, F, mortality", "value": "2140 mg/kg and 825 mg/kg"}, {"measurement": "NOAEL", "setting": "[3]; chronic, duration: 2 years, body weight", "value": 13, "unit": "mg/kg-day"}, {"measurement": "NOAEL", "setting": "[3]; reproduction developmental, body weight", "value": 37, "unit": "mg/kg-day"}, {"measurement": "NOAEL", "setting": "[3]; reproduction developmental, reproduction", "value": 37, "unit": "mg/kg-day"}, {"measurement": "NOAEL", "setting": "[3]; subchronic, duration: 90 days, oral, body weight", "value": 21, "unit": "mg/kg-day"}, {"measurement": "LC50", "setting": "[4]", "value": 1110, "unit": "mg/kg"}, {"measurement": "LD50", "setting": "[5]", "value": "> 200", "unit": "µg/piece"}, {"measurement": "NOEC", "setting": "[6]", "value": 10, "unit": "mg/L"}, {"measurement": "LD50", "setting": "[7]; acute, oral, mortality", "value": "≥ 2000", "unit": "mg/kg"}, {"measurement": "NOAEL", "setting": "[7]; reproduction developmental, F", "value": 21.8, "unit": "mg/kg-day"}]}
